# What was measured:
# [1] = tested on: HT1080 FSP1-KO cells reconstituted with either FSP1-WT or FSP1-G2A; test: FIN56-induced ferroptosis in FSP1-KO cells reconstituted with FSP1-WT or FSP1-G2A; format: cell-based, human; details: iFSP1 10 μM, CPBA 100 μM
# Experimental: The following HT1080 fibrosarcoma cell lines were generated using CRISPR/Cas9 technology, as previously described (Doll et al., 2019): HT1080 GPX4-knockout (KO) cells (maintained in the presence of 100 μM α-tocopherol); HT1080 GPX4 knockout cells overexpressing FSP1 (GPX4-KO/FSP1-OE); GPX4-KO cells overexpressing FSP1 and re-expressing GPX4 (GPX4-KO/FSP1-OE/GPX4-OE); HT1080 FSP1-WT or FSP1-KO cells; and HT1080 FSP1-KO cells reconstituted with either FSP1-WT or FSP1-G2A. LOX-IMVI (BRAF V600E heterozygous human melanoma cells) expressing either the Venus mock vector or FSP1-Venus (Doll et al., 2019) were grown in RPMI-1640 supplemented with 10% FCS, 2 mM L-glutamine and Pen/Strep.
# In order to study the effect of FSP1 membrane targeting on iFSP1 or CPBA-dependent ferroptosis sensitization, HT1080 FSP1-KO cells reconstituted with either FSP1-WT or the membrane binding-incompetent myristoylation mutant FSP1-G2A were incubated with serial FIN56-dilutions in the absence or presence of the DMSO solvent control, iFSP1 (10 μM), or CPBA (100 μM) (see FIG. 18A).
# cancer cell lines = test: FIN56 toxicity in a panel of cancer cell lines; format: cell-based, human, mouse, rat
# Source text: Cell culture media and supplements were from Thermo Fisher Scientific, unless specified otherwise. Mouse embryonic fibroblasts (MEFs) were generated from Pgp-wildtype (Pgp^fl/fl) or heterozygous Pgp-inactivated mouse embryos (Pgp^fl/D34N) as described (Segerer et al., 2016). Human embryonic kidney HEK-AD293 (HEK293) cells (Stratagene), HT-1080 human fibrosarcoma cells, PC3 and Du145 human prostate carcinoma cells, HepG2 human hepatocytic carcinoma (HCC) cells, Hepa 1-6 murine HCC, 4T1 mouse breast carcinoma, Colon-26 mouse colon carcinoma, C6 rat glioblastoma and RAW264.7 mouse monocytes/macrophages (all from LGC Standards) were cultured in Dulbecco's modified Eagle's medium (DMEM, 4.5 g/L glucose) supplemented with 10% (v/v) heat-inactivated fetal calf serum (FCS), 2 mM L-glutamine, 100 U/mL penicillin and 100 μg/mL streptomycin (Pen/Strep). Hepa-1c1c7 murine HCC were grown in alpha MEM without nucleosides (Gibco, cat. no. 31095029) supplemented with 10% FCS and Pen/Strep. JTC-27 rat HCC were cultured in RPMI-1640 with 10% FCS and Pen/Strep. […]
# Cells were seeded onto 96-well plates (5,000 cells per well), and treated with serial dilutions of ferroptosis-inducing compounds (erastin, BSO, RSL3, FIN56) or cytotoxic drugs (staurosporine, nocodazole, tunicamycin, paclitaxel, etoposide, menadione, rotenone, FCCP, carboplatin) in the absence or presence of CPBA or iFSP1 (100 μM or 10 μM, respectively; unless stated otherwise) or the DMSO solvent control. Ferroptotic cell death was evaluated by incubating in the absence or presence of liproxstatin-1 (100 nM), ferrostatin-1 (200 nM), or deferoxamine (100 μM). Cell viability was assessed after 16 h using AquaBluer as an indicator of viable cells according to the manufacturer's recommendations (MultiTarget Pharmaceuticals, LLC). Fluorescence (excitation, 540 nm; emission, 590 nm) was analyzed on a Clariostar microplater reader. […]
# [2] = tested on: mouse embryonic fibroblasts (MEFs), Hepa 1-6 mouse hepatocellular carcinoma cells; test: Concentration-dependent toxicity of FIN56 with CPBA or iFSP1 in mouse cells; format: cell-based; details: for sensitization to FIN56-induced ferroptosis in mouse cells: MEFs or Hepa 1-6 cells
# Experimental: Cells were seeded onto 96-well plates (5,000 cells per well), and treated with serial dilutions of ferroptosis-inducing compounds (erastin, BSO, RSL3, FIN56) or cytotoxic drugs (staurosporine, nocodazole, tunicamycin, paclitaxel, etoposide, menadione, rotenone, FCCP, carboplatin) in the absence or presence of CPBA or iFSP1 (100 μM or 10 μM, respectively; unless stated otherwise) or the DMSO solvent control. Ferroptotic cell death was evaluated by incubating in the absence or presence of liproxstatin-1 (100 nM), ferrostatin-1 (200 nM), or deferoxamine (100 μM). Cell viability was assessed after 16 h using AquaBluer as an indicator of viable cells according to the manufacturer's recommendations (MultiTarget Pharmaceuticals, LLC). Fluorescence (excitation, 540 nm; emission, 590 nm) was analyzed on a Clariostar microplater reader.
# In order to test concentration-dependent toxicity of treatment with FIN56 and either CPBA or iFSP1, we treated mouse embryonic fibroblasts (MEFs, see FIG. 21A), or Hepa 1-6 mouse hepatocellular carcinoma cells (see FIG. 21B) with DMSO solvent control, or with the indicated concentrations of CPBA or iFSP1. Ferroptotic cell death was assessed by incubation in the absence or presence of liproxstatin-1 (lip-1; A, 500 nM; B, 250 nM).
SMILES,ferroptosis sensitization depending on FSP1 membrane targeting [1],"sensitization of cancer cell lines to FIN56-induced ferroptosis (cancer cell lines; CPBA 100 μM, iFSP1 10 μM (3 μM in HepG2), 16 h)",sensitization to FIN56-induced ferroptosis in mouse cells [2],effect in human cancer cell lines (cancer cell lines; human cancer cell lines),effect in mouse or rat cancer cell lines (cancer cell lines; mouse or rat cancer cell lines (FIG. 20A)),concentrations that are non-specifically toxic to cells ([2]; 16 h)
"O=C(Nc1ccccc1C(=O)O)c1ccc(Oc2ccc(C(=O)Nc3ccccc3C(=O)O)cc2)cc1 [CPBA, 2-[[4-[4-[(2-carboxyphenyl)carbamoyl]phenoxy]benzoyl]amino]-benzoic acid]",sensitize FSP1-proficient cells to ferroptosis only if FSP1 can be targeted to membranes,sensitizes cancer cell lines of different species and tumor types to ferroptosis,sensitizes MEFs or Hepa 1-6 cells to FIN56-induced ferroptosis,–,–,–
"Cc1ccc(-c2c(C#N)c(N)n3c(nc4ccccc43)c2C#N)cc1 [iFSP1, reference compound]",sensitize FSP1-proficient cells to ferroptosis only if FSP1 can be targeted to membranes,–,does not have an effect on mouse cell lines,"able to inhibit endogenous and overexpressed FSP1 in human cancer cell lines, and thereby sensitize these cells to ferroptotic death",completely ineffective in mouse or rat cancer cell lines,> 10 µM

# Source: patent US20250064762A1, “A SUBSTITUTED AROMATIC DICARBONIC ACID AMIDE AS AN INHIBITOR OF THE FERROPTOSIS SUPPRESSOR PROTEIN-1 (FSP1)” (JULIUS-MAXIMILIANS-UNIVERSITÄT WÜRZBURG, priority 2021, published 2025)
